In patent US20030087830A1, “Low molecular weight components of cartilage, complexes of metals with amino acids, DI-peptides and analogs thereof; processes for preparation and therapeutic uses thereof” (priority 2001, published 2003):

Key:
[1] = tested on: Striated muscle cells (skeletal muscle cells); experiment: Striated muscle cell proliferation; assay type: cell-based; settings: 48 hours; free amino acids and Glu-Trp 2.5 mM, CuCl2 1.25 mM
Protocol: (§1) Endothelial and tumor cell proliferation assays were performed to determine the ability of test samples to inhibit endothelial cell proliferation (antiangiogenic activity), normal cell proliferation,and tumor cell proliferation.
(§2) Endothelial cells (Human umbilical vein endothelial cells (HUVEC), bovine aortic endothelial cells (BAEC)), skeletal muscle cells, human dermal fibroblasts (all from Clonetics, Walkersville, Md.) were respectively maintained in EBM-2, MDEM, SKGM and FGFM-2 complete media according to manufacturer's instructions. Tumor rat glioblastoma cell line (C6) was maintained in DMEM (Sigma, Oaksville, Ontario) supplemented with 10% fetal calf serum (FCS) and antibiotics in 5% CO2. Briefly, cells seeded in 96-well sterile tissue culture dishes were treated with increasing concentrations of different test samples for a period of 48 hours at 37° C. Cell number was then evaluated by a calorimetric assay using the cell proliferation reagent tetrazolium salt and the fluorimetric assay using DNA dye (Hoescht) according to the procedure established by the manufacturer (Boehringer Mannhein). The conversion of these tetrazolium salts into formazan occurs only in metabolically active cells. The percentage of cell inhibition was determined by comparison to untreated cells.

C6 glioblastoma cells = experiment: C6 glioblastoma cell proliferation; assay type: cell-based, rat; settings: 48 hours; free amino acids and Glu-Trp 2.5 mM, CuCl2 1.25 mM
Protocol: as §1, §2

Endothelial cells [2] = experiment: Endothelial cell migration assay (VEGF, modified Boyden chamber); assay type: cell-based
Protocol: The endothelial cell migration assay was performed to determine the ability of test samples to inhibit the chemotaxic activity of vascular endothelial growth factor (VEGF;R/D System, MN) using a modified Boyden chamber (Transwell™, Corning/Costar). Briefly, polyvinylidene difluoride filters (PVDF) were coated with Pronectin F (Biosources, CA), a constituent of basement membrane barrier. Boyden chambers were assembled by adding VEGF to the culture media in the lower chamber (chemoattractant). Endothelial cells suspended in cultured media in the presence or the absence of the test samples were added to the upper chamber. The chambers were then incubated for a period of 4.5 hours at 37° C. At the end of the incubation period, the cells from both side of the PVDF membrane were fixed with 3.7% formaldehyde. Cells from the upper surface of the membrane were mechanically removed, and the cells remaining on the underside of the membrane were stained with crystal violet (0.5%; Sigma). Cells were then carefully rinsed and the dye fixed to the cells was quantified with a microplate reader ([…]) after its solubilization with a solution of 50% citric acid (0.1M) in water and 50% ethanol.

Endothelial cells [3] = experiment: Endothelial cell tubule formation assay (tubulogenesis); assay type: cell-based; design: key to Tubulogenesis: 0: Numerous capillary-like tube forming pentagonal network; +: Decrease of capillary-like tubes; ++: Dramatic decrease of capillary-like tubes; +++: Absence of capillary-like tubes
Protocol: The endothelial cell tubule formation assay is a semi-quantitative assay that was performed to determine the ability of test samples to inhibit this multi-step process, which involves cell adhesion, migration, differentiation and growth, using a commercial kit (Chemicon). Briefly, endothelial cells were seeded on solid gel of Ecmatrix™ (Chemicon), basement proteins prepared from the Engelbreth Holm-Swarm (EHS) mouse tumor in microplate in a E-99 media (Sigma) supplemented with 5% FBS and VEGF (50 ng/ml) in the presence or absence of the test sample. Cells were incubated for a period of 24 hours at 37° C. Pictures were taken on the entire tissue culture dish using a binocular microscope for further evaluation.

With L-Asp Cu L-Asp [Compound 6] the “Striated muscle (EC50 (mM))” value [1] was “Non-active”, the “C6 glioblastoma (EC50 (mM))” value (C6 glioblastoma cells) was “Non-active” and the “Cell migration activity (in words)” value (Endothelial cells [2]) was “important activity”. The “Migration % of inhibition” value (Endothelial cells [2]; 1.25 mmole (equivalent copper), VEGF chemoattractant, 4.5 hours) was 82% of inhibition, the “Cell Migration (% inhibition)” value (Endothelial cells [2]; copper complexes, concentration not given, VEGF, 4.5 hours) was 82% and the “Tubulogenesis activity (in words)” value (Endothelial cells [3]) was “important activity”. The “Tubulogenesis (in words)” value (Endothelial cells [3]; 1.25 mmole (equivalent copper), 24 hours) was “Decrease of capillary-like tube formation” and the Tubulogenesis (Endothelial cells [3]; copper complexes, concentration not given, VEGF 50 ng/ml, 24 hours) was “+”.
